Experiment [1] concerns Sporothrix schenckii. As to the kind of experiment: In vitro antifungal activity against human pathogenic fungi, Sporothrix schenck ii. The class given is functional.
Experiment [2] relates to Trichophyton benhamiae. As to the kind of experiment: In vitro antifungal activity against human pathogenic fungi, Trichophyton mentagrophytes. The experiment is classed as functional, Arthroderma benhamiae.
For experiment [3], the system named is Cryptococcus neoformans. As to the kind of experiment: In vitro antifungal activity against human pathogenic fungi, Cryptococcus neoformans. The experiment is classed as functional.
The test system of experiment [4] is Candida albicans. As to the kind of experiment: In vitro antifungal activity against human pathogenic fungi, Candida albicans. The experiment is classed as functional.
The test system of experiment [5] is Aspergillus fumigatus. Kind of experiment: In vitro antifungal activity against human pathogenic fungi, Aspergillus fumigatus. The experiment is classed as functional.

In brackets after ≈: the same amount, converted by molar mass.

The term MIC denotes the lowest concentration that inhibits growth of the organism. A lower MIC goes with inhibition by little substance. For `CSc1nc(-c2ccccc2)nc(Cl)c1C#N`, the MIC in experiment [1] is greater than 100 µg/mL; in experiment [2], 12.5 µg/mL (≈ 47.8 µM); in experiment [3], greater than 100 µg/mL; in experiment [4], greater than 100 µg/mL; in experiment [5], 0.02 µg/mL (≈ 0.0764 µM).

In the case of `COc1ccc(-c2nc(SC)nc(Nc3ccc(Cl)cc3)c2C#N)cc1`, the MIC in experiment [1], in experiment [2], in experiment [3], in experiment [4] and in experiment [5] was greater than 100 µg/mL throughout.

As to `CSc1nc(S)c(C#N)c(-c2cccc(F)c2)n1`, the MIC in experiment [1], in experiment [2], in experiment [3], in experiment [4] and in experiment [5] was greater than 100 µg/mL in each case.

In the case of `CCc1nc(Cl)c(C#N)c(SC)n1`, the minimum inhibitory concentration (MIC) in experiment [1] stood at 12.5 µg/mL (≈ 58.5 µM); in experiment [2], 1.56 µg/mL (≈ 7.3 µM); in experiment [3] it was 1.56 µg/mL (≈ 7.3 µM); in experiment [4], 25 µg/mL (≈ 117 µM); in experiment [5], 6.25 µg/mL (≈ 29.2 µM).

Turning to `CSc1nc(Cl)c(C#N)c(-c2cccc(Cl)c2)n1`, the MIC in experiment [1] is greater than 100 µg/mL; in experiment [2], 0.39 µg/mL (≈ 1.32 µM); in experiment [3] it was 1.56 µg/mL (≈ 5.27 µM); in experiment [4], greater than 100 µg/mL; in experiment [5], 0.09 µg/mL (≈ 0.304 µM).

Turning to `CSc1nc(Nc2ccc(Cl)cc2)c(C#N)c(-c2ccc(F)cc2)n1`, the minimal inhibitory concentration (MIC) in experiment [1], in experiment [2], in experiment [3], in experiment [4] and in experiment [5] was greater than 100 µg/mL each time.

On to `CSc1nc(Cl)c(C#N)c(SC)n1`, for which the MIC in experiment [1] was 50 µg/mL (≈ 216 µM); in experiment [2], 0.005 µg/mL (≈ 0.0216 µM); in experiment [3], 1.56 µg/mL (≈ 6.73 µM); in experiment [4], greater than 100 µg/mL; in experiment [5] it was 0.002 µg/mL (≈ 0.00863 µM).

As to `CSc1nc(Cl)c(C#N)c(-c2cccc(F)c2)n1`, the MIC in experiment [1] was greater than 100 µg/mL; in experiment [2], 0.09 µg/mL (≈ 0.322 µM); in experiment [3] it was 50 µg/mL (≈ 179 µM); in experiment [4] it was greater than 100 µg/mL; in experiment [5], 0.09 µg/mL (≈ 0.322 µM).

As to `COc1ccc(-c2nc(SC)nc(Cl)c2C#N)cc1`, the MIC in experiment [1] was greater than 100 µg/mL; in experiment [2], 50 µg/mL (≈ 171 µM); in experiment [3] it was greater than 100 µg/mL; in experiment [4], greater than 100 µg/mL; in experiment [5], 50 µg/mL (≈ 171 µM).

For the compound `CSc1nc(Cl)c(C#N)c(-c2ccc(F)cc2)n1`, the MIC was greater than 100 µg/mL in experiment [1]; 0.09 µg/mL (≈ 0.322 µM) in experiment [2]; 50 µg/mL (≈ 179 µM) in experiment [3]; greater than 100 µg/mL in experiment [4]; 0.04 µg/mL (≈ 0.143 µM) in experiment [5].

As for `CSc1nc(Cl)c(C#N)c(-c2ccc(Cl)cc2)n1`, the MIC was greater than 100 µg/mL in experiment [1]; 0.19 µg/mL (≈ 0.641 µM) in experiment [2]; greater than 100 µg/mL in experiment [3]; greater than 100 µg/mL in experiment [4]; 0.04 µg/mL (≈ 0.135 µM) in experiment [5].

With `CSc1nc(SCc2ccccc2)nc(Cl)c1C#N`, the minimal inhibitory concentration (MIC) stood at 50 µg/mL (≈ 162 µM) in experiment [1]; 0.19 µg/mL (≈ 0.617 µM) in experiment [2]; 6.25 µg/mL (≈ 20.3 µM) in experiment [3]; 50 µg/mL (≈ 162 µM) in experiment [4]; 0.78 µg/mL (≈ 2.53 µM) in experiment [5].

Consider `CSc1nc(Nc2ccc(Cl)cc2)c(C#N)c(-c2cccc(F)c2)n1`, for which the MIC in experiment [1], in experiment [2], in experiment [3], in experiment [4] and in experiment [5] was greater than 100 µg/mL each time.

In the case of `CSc1ncnc(Cl)c1C#N`, the minimum inhibitory concentration (MIC) in experiment [1] worked out at 6.25 µg/mL (≈ 33.7 µM); in experiment [2], 0.39 µg/mL (≈ 2.1 µM); in experiment [3], 1.56 µg/mL (≈ 8.4 µM); in experiment [4], 25 µg/mL (≈ 135 µM); in experiment [5] it was 0.39 µg/mL (≈ 2.1 µM).

For `CCSc1nc(Cl)c(C#N)c(-c2cccc(F)c2)n1`, the MIC in experiment [1] was 50 µg/mL (≈ 170 µM); in experiment [2], 0.39 µg/mL (≈ 1.33 µM); in experiment [3], 3.12 µg/mL (≈ 10.6 µM); in experiment [4], greater than 100 µg/mL; in experiment [5] it was 1.56 µg/mL (≈ 5.31 µM).

For the compound `C[C@@H]1[C@H](O)[C@@H](C)/C=C/C=C/C=C/C=C/C=C/C=C/C=C/[C@H](O[C@@H]2O[C@H](C)[C@@H](O)[C@H](N)[C@@H]2O)C[C@@H]2O[C@](O)(C[C@@H](O)C[C@@H](O)[C@H](O)CC[C@@H](O)C[C@@H](O)CC(=O)O[C@H]1C)C[C@H](O)[C@H]2C(=O)O` [AMPHOTERICIN B], the MIC in experiment [2] is 0.005 µg/mL (≈ 0.00541 µM); in experiment [5], 0.002 µg/mL (≈ 0.00216 µM).

For `CC(=O)N1CCN(c2ccc(OC[C@H]3CO[C@](Cn4ccnc4)(c4ccc(Cl)cc4Cl)O3)cc2)CC1` [KETOCONAZOLE], the MIC stood at 25 µg/mL (≈ 47 µM) in experiment [1]; 0.1 µg/mL (≈ 0.188 µM) in experiment [2]; 0.1 µg/mL (≈ 0.188 µM) in experiment [3]; 0.3 µg/mL (≈ 0.565 µM) in experiment [4]; 0.7 µg/mL (≈ 1.32 µM) in experiment [5].

(Values after ChEMBL document CHEMBL1133324, “Suitably functionalised pyrimidines as potential antimycotic agents” (2000).)
